In ChEMBL document CHEMBL4507282, “Data for DCP probe BI-1950” (2021):

Legend:
[1] = target: Mitogen-activated protein kinase kinase kinase 20 (Homo sapiens) (UniProt Q9NYL2); details: Compound concentration 1000.0 nM
[2] = system: Epidermal growth factor receptor (Homo sapiens), P00533 [L861Q]; details: Compound concentration 1000.0 nM
[3] = system: Phosphatidylinositol 4,5-bisphosphate 3-kinase catalytic subunit alpha isoform (Homo sapiens), P42336 [C420R]; details: Compound concentration 1000.0 nM
[4] = target: Cyclin-dependent kinase 19 (Homo sapiens) (UniProt Q9BWU1); details: Compound concentration 1000.0 nM
[5] = target: Vascular endothelial growth factor receptor 1 (Homo sapiens) (UniProt P17948); details: Compound concentration 1000.0 nM
[6] = target: Activin receptor type-1 (Homo sapiens) (UniProt Q04771); details: Compound concentration 1000.0 nM
[7] = target: RAF proto-oncogene serine/threonine-protein kinase (Homo sapiens) (UniProt P04049); details: Compound concentration 1000.0 nM
[8] = target: Ephrin type-A receptor 6 (Homo sapiens) (UniProt Q9UF33); details: Compound concentration 1000.0 nM
[9] = target: Serine/threonine-protein kinase DCLK1 (Homo sapiens) (UniProt O15075); details: Compound concentration 1000.0 nM
[10] = target: Histamine H3 receptor (Homo sapiens) (UniProt Q9Y5N1); details: Compound concentration 10.0 uM
[11] = target: Insulin receptor-related protein (Homo sapiens) (UniProt P14616); details: Compound concentration 1000.0 nM
[12] = system: Tyrosine-protein kinase ABL1 (Homo sapiens), P00519 [T315I]; details: Compound concentration 1000.0 nM
[13] = target: Protein kinase C eta type (Homo sapiens) (UniProt P24723); details: Compound concentration 1000.0 nM
[14] = target: TRAF2 and NCK-interacting protein kinase (Homo sapiens) (UniProt Q9UKE5); details: Compound concentration 1000.0 nM
[15] = target: Serine/threonine-protein kinase SIK1 (Homo sapiens) (UniProt P57059); details: Compound concentration 1000.0 nM
[16] = target: Serine/threonine-protein kinase 32B (Homo sapiens) (UniProt Q9NY57); details: Compound concentration 1000.0 nM
[17] = target: 5'-AMP-activated protein kinase catalytic subunit alpha-2 (Homo sapiens) (UniProt P54646); details: Compound concentration 1000.0 nM
[18] = target: Tyrosine-protein kinase ABL2 (Homo sapiens) (UniProt P42684); details: Compound concentration 1000.0 nM
[19] = target: Myotonin-protein kinase (Homo sapiens) (UniProt Q09013); details: Compound concentration 1000.0 nM
[20] = target: Serine/threonine-protein kinase 38-like (Homo sapiens) (UniProt Q9Y2H1); details: Compound concentration 1000.0 nM
[21] = target: Serine/threonine-protein kinase 24 (Homo sapiens) (UniProt Q9Y6E0); details: Compound concentration 1000.0 nM
[22] = target: Bone morphogenetic protein receptor type-1A (Homo sapiens) (UniProt P36894); details: Compound concentration 1000.0 nM
[23] = target: Dual specificity testis-specific protein kinase 1 (Homo sapiens) (UniProt Q15569); details: Compound concentration 1000.0 nM
[24] = target: Receptor tyrosine-protein kinase erbB-3 (Homo sapiens) (UniProt P21860); details: Compound concentration 1000.0 nM
[25] = system: Epidermal growth factor receptor (Homo sapiens), P00533 [UNDEFINED MUTATION]; details: Compound concentration 1000.0 nM
[26] = target: Aurora kinase C (Homo sapiens) (UniProt Q9UQB9); details: Compound concentration 1000.0 nM
[27] = target: 5-hydroxytryptamine receptor 1D (Homo sapiens) (UniProt P28221); details: Compound concentration 10.0 uM
[28] = system: Mast/stem cell growth factor receptor Kit (Homo sapiens), P10721 [D816H]; details: Compound concentration 1000.0 nM
[29] = target: Serine/threonine-protein kinase TAO3 (Homo sapiens) (UniProt Q9H2K8); details: Compound concentration 1000.0 nM
[30] = target: Serine/threonine-protein kinase Nek2 (Homo sapiens) (UniProt P51955); details: Compound concentration 1000.0 nM
[31] = target: Fibroblast growth factor receptor 3 (Homo sapiens) (UniProt P22607); details: Compound concentration 1000.0 nM
[32] = target: Calcium/calmodulin-dependent protein kinase type 1G (Homo sapiens) (UniProt Q96NX5); details: Compound concentration 1000.0 nM
[33] = target: Wee1-like protein kinase (Homo sapiens) (UniProt P30291); details: Compound concentration 1000.0 nM
[34] = target: Phosphorylase b kinase regulatory subunit alpha, liver isoform (Homo sapiens) (UniProt P46019); details: Compound concentration 1000.0 nM
[35] = system: Receptor-type tyrosine-protein kinase FLT3 (Homo sapiens), P36888 [D835Y]; details: Compound concentration 1000.0 nM
[36] = target: Serine/threonine-protein kinase 3 (Homo sapiens) (UniProt Q13188); details: Compound concentration 1000.0 nM
[37] = target: Serine/threonine-protein kinase SIK3 (Homo sapiens) (UniProt Q9Y2K2); details: Compound concentration 1000.0 nM
[38] = target: 5'-AMP-activated protein kinase catalytic subunit alpha-1 (Homo sapiens) (UniProt Q13131); details: Compound concentration 1000.0 nM
[39] = target: Serine/threonine-protein kinase Nek6 (Homo sapiens) (UniProt Q9HC98); details: Compound concentration 1000.0 nM
[40] = target: Cyclin-dependent kinase 2 (Homo sapiens) (UniProt P24941); details: Compound concentration 1000.0 nM
[41] = target: Tyrosine-protein kinase TXK (Homo sapiens) (UniProt P42681); details: Compound concentration 1000.0 nM
[42] = target: 5-hydroxytryptamine receptor 2A (Homo sapiens) (UniProt P28223); details: Compound concentration 10.0 uM
[43] = target: Serine/threonine-protein kinase Sgk1 (Homo sapiens) (UniProt O00141); details: Compound concentration 1000.0 nM
[44] = target: Homeodomain-interacting protein kinase 2 (Homo sapiens) (UniProt Q9H2X6); details: Compound concentration 1000.0 nM
[45] = target: Serine/threonine-protein kinase NLK (Homo sapiens) (UniProt Q9UBE8); details: Compound concentration 1000.0 nM

Serine/threonine-protein kinase Nek6 (Homo sapiens), sequence (Q9HC98 whole entry): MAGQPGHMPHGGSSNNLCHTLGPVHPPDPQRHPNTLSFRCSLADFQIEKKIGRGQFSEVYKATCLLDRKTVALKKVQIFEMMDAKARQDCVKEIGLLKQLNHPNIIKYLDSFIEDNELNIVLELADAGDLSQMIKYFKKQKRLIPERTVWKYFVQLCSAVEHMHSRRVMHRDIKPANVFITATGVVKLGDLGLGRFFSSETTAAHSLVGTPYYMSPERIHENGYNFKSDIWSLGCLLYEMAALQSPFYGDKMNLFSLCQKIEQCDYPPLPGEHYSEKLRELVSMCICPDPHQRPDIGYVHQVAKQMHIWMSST
Mast/stem cell growth factor receptor Kit (Homo sapiens), P10721 [D816H], sequence (P10721 whole entry D816H): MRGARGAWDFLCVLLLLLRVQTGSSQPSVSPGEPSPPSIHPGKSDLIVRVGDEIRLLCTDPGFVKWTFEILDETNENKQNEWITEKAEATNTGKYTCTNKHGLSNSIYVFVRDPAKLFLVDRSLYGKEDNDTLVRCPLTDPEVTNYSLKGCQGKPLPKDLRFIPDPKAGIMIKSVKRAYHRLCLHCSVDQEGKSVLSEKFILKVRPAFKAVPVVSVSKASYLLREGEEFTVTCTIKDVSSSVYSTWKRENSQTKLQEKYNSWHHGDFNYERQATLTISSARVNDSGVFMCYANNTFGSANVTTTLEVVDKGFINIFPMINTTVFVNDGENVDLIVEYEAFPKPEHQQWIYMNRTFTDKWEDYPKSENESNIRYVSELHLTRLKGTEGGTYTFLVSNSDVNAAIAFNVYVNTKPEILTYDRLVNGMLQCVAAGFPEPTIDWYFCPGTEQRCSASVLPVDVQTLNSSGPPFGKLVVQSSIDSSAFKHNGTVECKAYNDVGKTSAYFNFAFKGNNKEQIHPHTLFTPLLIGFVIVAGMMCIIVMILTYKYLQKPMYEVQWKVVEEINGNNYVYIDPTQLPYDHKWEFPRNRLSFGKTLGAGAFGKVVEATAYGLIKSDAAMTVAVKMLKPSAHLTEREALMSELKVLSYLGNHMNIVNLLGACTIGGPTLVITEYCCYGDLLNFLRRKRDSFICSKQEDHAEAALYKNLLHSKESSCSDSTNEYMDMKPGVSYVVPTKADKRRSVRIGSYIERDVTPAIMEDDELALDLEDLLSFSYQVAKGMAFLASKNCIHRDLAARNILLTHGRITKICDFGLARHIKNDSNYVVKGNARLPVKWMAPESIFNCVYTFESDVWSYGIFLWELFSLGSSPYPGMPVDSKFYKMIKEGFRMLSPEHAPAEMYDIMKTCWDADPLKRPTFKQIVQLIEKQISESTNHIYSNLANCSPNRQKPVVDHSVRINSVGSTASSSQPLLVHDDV
5-hydroxytryptamine receptor 1D (Homo sapiens), sequence (P28221 whole entry): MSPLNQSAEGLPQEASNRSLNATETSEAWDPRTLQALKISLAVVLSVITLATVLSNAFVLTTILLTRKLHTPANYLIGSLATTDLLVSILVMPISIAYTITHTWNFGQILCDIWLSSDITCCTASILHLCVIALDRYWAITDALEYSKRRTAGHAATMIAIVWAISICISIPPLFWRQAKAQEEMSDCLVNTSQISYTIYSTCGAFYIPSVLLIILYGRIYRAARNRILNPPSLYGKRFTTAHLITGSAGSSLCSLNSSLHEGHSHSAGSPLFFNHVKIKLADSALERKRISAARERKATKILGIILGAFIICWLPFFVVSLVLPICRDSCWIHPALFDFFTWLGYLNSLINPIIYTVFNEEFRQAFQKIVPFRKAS
Serine/threonine-protein kinase 32B (Homo sapiens), sequence (Q9NY57 whole entry): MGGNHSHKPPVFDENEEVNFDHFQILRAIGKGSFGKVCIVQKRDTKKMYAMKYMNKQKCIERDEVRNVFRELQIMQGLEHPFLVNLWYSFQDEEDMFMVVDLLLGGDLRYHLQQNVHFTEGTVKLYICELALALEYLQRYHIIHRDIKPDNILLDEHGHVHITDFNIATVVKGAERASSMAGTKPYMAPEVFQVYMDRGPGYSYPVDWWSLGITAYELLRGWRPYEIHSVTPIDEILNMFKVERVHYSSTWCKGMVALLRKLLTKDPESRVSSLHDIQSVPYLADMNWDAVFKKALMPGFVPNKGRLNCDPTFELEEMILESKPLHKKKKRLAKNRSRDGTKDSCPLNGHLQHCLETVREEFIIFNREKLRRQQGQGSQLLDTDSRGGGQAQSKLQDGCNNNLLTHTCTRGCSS
5-hydroxytryptamine receptor 2A (Homo sapiens), sequence (P28223 whole entry): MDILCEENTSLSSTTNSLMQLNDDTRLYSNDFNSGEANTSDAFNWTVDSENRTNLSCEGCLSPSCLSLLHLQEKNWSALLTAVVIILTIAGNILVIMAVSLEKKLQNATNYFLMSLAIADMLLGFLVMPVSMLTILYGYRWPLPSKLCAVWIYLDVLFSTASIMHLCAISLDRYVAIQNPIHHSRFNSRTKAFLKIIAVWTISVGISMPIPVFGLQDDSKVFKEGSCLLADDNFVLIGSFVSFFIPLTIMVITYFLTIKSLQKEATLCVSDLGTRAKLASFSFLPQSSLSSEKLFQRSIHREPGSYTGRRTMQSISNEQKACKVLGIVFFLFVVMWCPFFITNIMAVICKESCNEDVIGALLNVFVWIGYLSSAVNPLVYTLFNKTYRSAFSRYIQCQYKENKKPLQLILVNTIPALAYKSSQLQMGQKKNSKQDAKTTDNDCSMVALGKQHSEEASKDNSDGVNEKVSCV
Aurora kinase C (Homo sapiens), sequence (Q9UQB9 whole entry): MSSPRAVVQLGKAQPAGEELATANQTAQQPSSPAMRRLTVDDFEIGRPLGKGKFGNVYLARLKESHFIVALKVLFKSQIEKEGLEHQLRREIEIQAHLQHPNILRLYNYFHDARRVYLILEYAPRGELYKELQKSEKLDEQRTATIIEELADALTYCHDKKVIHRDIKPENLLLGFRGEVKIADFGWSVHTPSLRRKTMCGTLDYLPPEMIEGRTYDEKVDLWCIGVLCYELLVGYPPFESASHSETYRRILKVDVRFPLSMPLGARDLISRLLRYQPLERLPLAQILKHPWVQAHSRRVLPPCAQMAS
Calcium/calmodulin-dependent protein kinase type 1G (Homo sapiens), sequence (Q96NX5 whole entry): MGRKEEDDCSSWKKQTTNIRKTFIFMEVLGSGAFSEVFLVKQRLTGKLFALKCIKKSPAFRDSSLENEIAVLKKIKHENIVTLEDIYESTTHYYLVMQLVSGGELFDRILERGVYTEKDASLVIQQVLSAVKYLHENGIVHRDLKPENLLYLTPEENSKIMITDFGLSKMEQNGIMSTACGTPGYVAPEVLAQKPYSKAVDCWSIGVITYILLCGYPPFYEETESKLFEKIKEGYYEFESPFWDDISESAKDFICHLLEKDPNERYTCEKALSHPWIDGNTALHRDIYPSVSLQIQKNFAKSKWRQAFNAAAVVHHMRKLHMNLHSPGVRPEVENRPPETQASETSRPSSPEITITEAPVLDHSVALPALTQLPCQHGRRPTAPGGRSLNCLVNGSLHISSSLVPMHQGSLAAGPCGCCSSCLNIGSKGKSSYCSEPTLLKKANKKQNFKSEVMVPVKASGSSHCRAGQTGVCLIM
Serine/threonine-protein kinase Sgk1 (Homo sapiens), sequence (O00141 whole entry): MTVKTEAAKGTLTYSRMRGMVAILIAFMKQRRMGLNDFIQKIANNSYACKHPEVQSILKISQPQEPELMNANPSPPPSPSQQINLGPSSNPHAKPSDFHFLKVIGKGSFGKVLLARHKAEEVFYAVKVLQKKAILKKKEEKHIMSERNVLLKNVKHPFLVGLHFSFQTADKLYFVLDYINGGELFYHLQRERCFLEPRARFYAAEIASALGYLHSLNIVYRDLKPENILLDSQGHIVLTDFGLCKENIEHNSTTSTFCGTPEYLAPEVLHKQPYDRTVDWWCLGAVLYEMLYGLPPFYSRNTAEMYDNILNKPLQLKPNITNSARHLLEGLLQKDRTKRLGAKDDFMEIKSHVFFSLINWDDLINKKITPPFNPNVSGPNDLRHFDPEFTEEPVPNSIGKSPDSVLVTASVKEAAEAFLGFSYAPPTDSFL
Serine/threonine-protein kinase TAO3 (Homo sapiens), sequence (Q9H2K8 whole entry): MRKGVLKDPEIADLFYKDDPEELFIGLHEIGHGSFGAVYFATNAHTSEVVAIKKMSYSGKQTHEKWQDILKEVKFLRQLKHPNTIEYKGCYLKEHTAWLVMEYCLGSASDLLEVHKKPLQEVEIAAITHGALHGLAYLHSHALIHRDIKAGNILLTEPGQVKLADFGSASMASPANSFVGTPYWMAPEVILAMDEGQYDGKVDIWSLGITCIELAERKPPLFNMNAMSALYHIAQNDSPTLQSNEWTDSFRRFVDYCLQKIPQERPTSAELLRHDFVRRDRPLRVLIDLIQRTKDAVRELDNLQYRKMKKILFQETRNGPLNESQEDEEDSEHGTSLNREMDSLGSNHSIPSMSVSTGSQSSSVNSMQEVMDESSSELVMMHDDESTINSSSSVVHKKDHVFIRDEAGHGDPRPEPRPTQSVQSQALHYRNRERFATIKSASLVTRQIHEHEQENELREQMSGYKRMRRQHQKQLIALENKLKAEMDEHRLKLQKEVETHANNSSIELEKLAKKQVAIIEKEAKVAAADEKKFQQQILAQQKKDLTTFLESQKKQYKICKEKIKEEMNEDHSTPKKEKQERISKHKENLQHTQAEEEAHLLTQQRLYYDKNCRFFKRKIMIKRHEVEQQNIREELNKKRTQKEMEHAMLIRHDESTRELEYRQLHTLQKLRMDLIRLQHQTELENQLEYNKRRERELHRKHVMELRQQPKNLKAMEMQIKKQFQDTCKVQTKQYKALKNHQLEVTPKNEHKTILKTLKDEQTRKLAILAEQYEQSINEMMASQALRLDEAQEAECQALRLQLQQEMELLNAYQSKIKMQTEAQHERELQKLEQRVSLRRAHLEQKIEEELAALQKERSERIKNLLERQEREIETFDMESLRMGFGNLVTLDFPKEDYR

C[C@H](NC(=O)c1cnc2n1[C@](C)(Cc1ccc(C#N)cc1)C(=O)N2c1cc(Cl)c(F)c(Cl)c1)C(=O)NC1(c2ccccn2)CC1 [BI 1950]
residual activity [1]: 100% | residual activity [2]: 100% | residual activity [3]: 93% | residual activity [4]: 81% | residual activity [5]: 100% | residual activity [6]: 97% | residual activity [7]: 100% | residual activity [8]: 100% | residual activity [9]: 89% | inhibition [10]: 1.43% | residual activity [11]: 100% | residual activity [12]: 100% | residual activity [13]: 90% | residual activity [14]: 100% | residual activity [15]: 100% | residual activity [16]: 80% | residual activity [17]: 100% | residual activity [18]: 83% | residual activity [19]: 67% | residual activity [20]: 49% | residual activity [21]: 100% | residual activity [22]: 98% | residual activity [23]: 100% | residual activity [24]: 100% | residual activity [25]: 100% | residual activity [26]: 100% | inhibition [27]: 12% | residual activity [28]: 100% | residual activity [29]: 88% | residual activity [30]: 95% | residual activity [31]: 100% | residual activity [32]: 100% | residual activity [33]: 100% | residual activity [34]: 100% | residual activity [35]: 100% | residual activity [36]: 100% | residual activity [37]: 76% | residual activity [38]: 100% | residual activity [39]: 100% | residual activity [40]: 100% | residual activity [41]: 90% | inhibition [42]: 9.3% | residual activity [43]: 100% | residual activity [44]: 100% | residual activity [45]: 100%

C[C@@]1(Cc2ccc(C#N)cc2)C(=O)N(c2cc(Cl)cc(Cl)c2)c2ncc(C(=O)NC3(c4nc(C5CCC5)no4)CC3)n21 [BI 9446]
residual activity [1]: 100% | residual activity [2]: 100% | residual activity [3]: 89% | residual activity [4]: 76% | residual activity [5]: 99% | residual activity [6]: 89% | residual activity [7]: 100% | residual activity [8]: 88% | residual activity [9]: 100% | inhibition [10]: 20% | residual activity [11]: 100% | residual activity [12]: 100% | residual activity [13]: 100% | residual activity [14]: 100% | residual activity [15]: 100% | residual activity [16]: 100% | residual activity [17]: 100% | residual activity [18]: 78% | residual activity [19]: 100% | residual activity [20]: 48% | residual activity [21]: 93% | residual activity [22]: 100% | residual activity [23]: 100% | residual activity [24]: 96% | residual activity [25]: 100% | residual activity [26]: 100% | inhibition [27]: 22.4% | residual activity [28]: 100% | residual activity [29]: 91% | residual activity [30]: 83% | residual activity [31]: 100% | residual activity [32]: 100% | residual activity [33]: 100% | residual activity [34]: 100% | residual activity [35]: 100% | residual activity [36]: 100% | residual activity [37]: 98% | residual activity [38]: 100% | residual activity [39]: 100% | residual activity [40]: 100% | residual activity [41]: 100% | inhibition [42]: 31.9% | residual activity [43]: 100% | residual activity [44]: 100% | residual activity [45]: 100%
